From PMC8286840, “Identifying SARS-CoV-2 antiviral compounds by screening for small molecule inhibitors of Nsp3 papain-like protease” (Biochemical Journal, 2021)
Structures can show the parent of a compound that is named as a salt. Where two headings read alike, the source gives them in different places. Where a SMILES comes first, the peptide text is derived from it. Bridges are numbered along the chain shown (N, C = ends). [ ]: non-standard residue; d: D form. The star is where a group is joined. NMePhe(4-NMe2) = CN[C@@H](Cc1ccc(N(C)C)cc1)C(=O)O; Pip(4-oxo) = O=C1CCN[C@H](C(=O)O)C1; Picolinoyl(3-OH) = O=C(c1ncccc1O)*; Phg = N[C@H](C(=O)O)c1ccccc1; dAbu = CC[C@@H](N)C(=O)O

Assays:
[1] = biological target: T1, SARS-CoV-2 PLpro (nsp3 1564–1878) (Severe acute respiratory syndrome coronavirus 2, UniProt P0DTD1); assay: biochemical; design: FRET-quenched peptide (Pro3) cleavage by PLpro, 10 min pre-incubation, slope over 20 min, normalised to no-compound control; details: low concentration screen, read-out: % of control remaining
[2] = biological target: T1, SARS-CoV-2 PLpro (nsp3 1564–1878); assay: biochemical; design: FRET-quenched peptide (Pro3) cleavage by PLpro, 10 min pre-incubation, slope over 20 min, normalised to no-compound control; details: high concentration screen, read-out: % of control remaining

CCC1(c2ccccc2)C(=O)NCNC1=O [Primidone]
remaining activity at 1.25 µM ([1]; Well no.=1443): 101% | remaining activity at 3.75 µM ([2]; Well no.=1443): 95.8%

CC[C@H]1NC(=O)[C@@H](NC(=O)c2ncccc2O)[C@@H](C)OC(=O)[C@H](c2ccccc2)NC(=O)[C@@H]2CC(=O)CCN2C(=O)[C@H](Cc2ccc(N(C)C)cc2)N(C)C(=O)[C@@H]2CCCN2C1=O [Pristinamycin IA] ({Picolinoyl(3-OH)}-T[dAbu]P[NMePhe(4-NMe2)][Pip(4-oxo)][Phg]; ester 1-C)
remaining activity at 1.25 µM ([1]; Well no.=7980): 96.9% | remaining activity at 3.75 µM ([2]; Well no.=7980): 96.6%

CCCN(CCC)S(=O)(=O)c1ccc(C(=O)O)cc1 [Probenecid (Benemid)]
remaining activity at 1.25 µM ([1]; Well no.=4972): 95.9% | remaining activity at 3.75 µM ([2]; Well no.=4972): 91.7%

CC(C)(Sc1cc(C(C)(C)C)c(O)c(C(C)(C)C)c1)Sc1cc(C(C)(C)C)c(O)c(C(C)(C)C)c1 [Probucol]
remaining activity at 1.25 µM ([1]; Well no.=4083): 98.5% | remaining activity at 3.75 µM ([2]; Well no.=4083): 105%

CCN(CC)CCNC(=O)c1ccc(N)cc1 [Procainamide hydrochloride]
remaining activity at 1.25 µM ([1]; Well no.=1307): 96.8% | remaining activity at 3.75 µM ([2]; Well no.=1307): 98.9%

CCN(CC)CCNC(=O)c1ccc(N)cc1 [Procainamide.HCl]
remaining activity at 1.25 µM ([1]; Well no.=1645): 108% | remaining activity at 3.75 µM ([2]; Well no.=1645): 107%

CCN(CC)CCOC(=O)c1ccc(N)cc1 [Procaine hydrochloride]
remaining activity at 1.25 µM ([1]; Well no.=1165): 103% | remaining activity at 3.75 µM ([2]; Well no.=1165): 105%

CNNCc1ccc(C(=O)NC(C)C)cc1 [Procarbazine]
remaining activity at 1.25 µM ([1]; Well no.=2145): 104% | remaining activity at 3.75 µM ([2]; Well no.=2145): 105%

CCC(NC(C)C)C(O)c1ccc(O)c2[nH]c(=O)ccc12 (stereo not shown) [Procaterol.HCl]
remaining activity at 1.25 µM ([1]; Well no.=1745): 99.6% | remaining activity at 3.75 µM ([2]; Well no.=1745): 101%

CN1CCN(CCCN2c3ccccc3Sc3ccc(Cl)cc32)CC1 [Prochlorperazine dimaleate]
remaining activity at 1.25 µM ([1]; Well no.=1497): 99.3% | remaining activity at 3.75 µM ([2]; Well no.=1497): 101%

O=C1N[C@H](C(=O)O)CS1 [Procysteine]
remaining activity at 1.25 µM ([1]; Well no.=3897): 104% | remaining activity at 3.75 µM ([2]; Well no.=3897): 103%

CC(=O)[C@H]1CC[C@H]2[C@@H]3CCC4=CC(=O)CC[C@]4(C)[C@H]3CC[C@]12C [Progesterone]
remaining activity at 1.25 µM ([1]; Well no.=852): 106% | remaining activity at 1.25 µM ([1]; Well no.=2143): 95.2% | remaining activity at 1.25 µM ([1]; Well no.=7071): 105% | remaining activity at 3.75 µM ([2]; Well no.=852): 107% | remaining activity at 3.75 µM ([2]; Well no.=2143): 101% | remaining activity at 3.75 µM ([2]; Well no.=7071): 104%

CCCN(CCC)C(=O)C(CCC(=O)O)NC(=O)c1ccccc1 (stereo not shown) [Proglumide]
remaining activity at 1.25 µM ([1]; Well no.=941): 104% | remaining activity at 3.75 µM ([2]; Well no.=941): 100%

CN(C)CCCN1c2ccccc2Sc2ccccc21 [Promazine hydrochloride]
remaining activity at 1.25 µM ([1]; Well no.=1155): 104% | remaining activity at 3.75 µM ([2]; Well no.=1155): 102%

CC(CN1c2ccccc2Sc2ccccc21)N(C)C (stereo not shown) [Promethazine hydrochloride]
remaining activity at 1.25 µM ([1]; Well no.=860): 100% | remaining activity at 3.75 µM ([2]; Well no.=860): 101%

CC(CN1c2ccccc2Sc2ccccc21)N(C)C (stereo not shown) [Promethazine.HCl]
remaining activity at 1.25 µM ([1]; Well no.=1640): 96.2% | remaining activity at 3.75 µM ([2]; Well no.=1640): 97.2%

CCCNCC(O)COc1ccccc1C(=O)CCc1ccccc1 (stereo not shown) [Propafenone hydrochloride]
remaining activity at 1.25 µM ([1]; Well no.=956): 101% | remaining activity at 3.75 µM ([2]; Well no.=956): 101%

CCCNCC(O)COc1ccccc1C(=O)CCc1ccccc1 (stereo not shown) [Propafenone]
remaining activity at 1.25 µM ([1]; Well no.=1641): 109% | remaining activity at 3.75 µM ([2]; Well no.=1641): 110%

CC(C)[N+](C)(CCOC(=O)C1c2ccccc2Oc2ccccc21)C(C)C [Propantheline bromide]
remaining activity at 1.25 µM ([1]; Well no.=1401): 102% | remaining activity at 3.75 µM ([2]; Well no.=1401): 102%

CCCn1cnc2c1c(=O)n(CCCCC(C)=O)c(=O)n2C [Propentofylline]
remaining activity at 1.25 µM ([1]; Well no.=1403): 95.1% | remaining activity at 3.75 µM ([2]; Well no.=1403): 94%

CCC(=O)c1ccc2c(c1)N(CCCN(C)C)c1ccccc1S2 [Propionylpromazine hydrochloride]
remaining activity at 1.25 µM ([1]; Well no.=1301): 103% | remaining activity at 3.75 µM ([2]; Well no.=1301): 106%

CC(C)c1cccc(C(C)C)c1O [Propofol]
remaining activity at 1.25 µM ([1]; Well no.=544): 104% | remaining activity at 1.25 µM ([1]; Well no.=1893): 92.7% | remaining activity at 3.75 µM ([2]; Well no.=544): 103% | remaining activity at 3.75 µM ([2]; Well no.=1893): 89.6%

CCCOC(=O)c1ccc(O)cc1 [Propylparaben]
remaining activity at 1.25 µM ([1]; Well no.=7453): 105% | remaining activity at 3.75 µM ([2]; Well no.=7453): 101%

CCCc1cc(=O)[nH]c(=S)[nH]1 [Propylthiouracil]
remaining activity at 1.25 µM ([1]; Well no.=4670): 98.7% | remaining activity at 3.75 µM ([2]; Well no.=4670): 94.9%

CCCCC[C@H](O)/C=C/[C@H]1C=CC(=O)[C@@H]1CCCCCCC(=O)O [Prostaglandin A1]
remaining activity at 1.25 µM ([1]; Well no.=3086): 99.1% | remaining activity at 1.25 µM ([1]; Well no.=4235): 89.4% | remaining activity at 3.75 µM ([2]; Well no.=3086): 101% | remaining activity at 3.75 µM ([2]; Well no.=4235): 94.9%

CCCCC[C@H](O)/C=C/[C@H]1C=CC(=O)[C@@H]1C/C=C\CCCC(=O)O [Prostaglandin A2]
remaining activity at 1.25 µM ([1]; Well no.=4467): 100% | remaining activity at 3.75 µM ([2]; Well no.=4467): 96.3%

CCCCC[C@H](O)/C=C/C1=C(CCCCCCC(=O)O)C(=O)CC1 [Prostaglandin B1]
remaining activity at 1.25 µM ([1]; Well no.=3088): 99.1% | remaining activity at 1.25 µM ([1]; Well no.=4469): 102% | remaining activity at 3.75 µM ([2]; Well no.=3088): 100% | remaining activity at 3.75 µM ([2]; Well no.=4469): 102%

CCCCC[C@H](O)/C=C/C1=C(C/C=C\CCCC(=O)O)C(=O)CC1 [Prostaglandin B2]
remaining activity at 1.25 µM ([1]; Well no.=4471): 96.7% | remaining activity at 3.75 µM ([2]; Well no.=4471): 101%

CCCCC[C@H](O)/C=C/[C@H]1[C@H](O)CC(=O)[C@@H]1CCCCCCC(=O)O [Prostaglandin E1]
remaining activity at 1.25 µM ([1]; Well no.=2192): 92.3% | remaining activity at 1.25 µM ([1]; Well no.=3090): 95.3% | remaining activity at 1.25 µM ([1]; Well no.=4473): 103% | remaining activity at 1.25 µM ([1]; Well no.=4475): 93.1% | remaining activity at 1.25 µM ([1]; Well no.=8109): 91.2% | remaining activity at 3.75 µM ([2]; Well no.=2192): 91.2% | remaining activity at 3.75 µM ([2]; Well no.=3090): 97% | remaining activity at 3.75 µM ([2]; Well no.=4473): 101% | remaining activity at 3.75 µM ([2]; Well no.=4475): 94.7% | remaining activity at 3.75 µM ([2]; Well no.=8109): 95%
